According to ChEMBL document CHEMBL1201862, “PubChem BioAssay data set” (2004):
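Method: 48-hour compound exposure of cells in 96-well plates, five concentrations, linear interpolation of endpoints. GI50 marks 50% less growth.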 The source made the active and inactive calls. No stated cut-off is given here; in the data, active = GI50 up to about 1.1 µM and inactive = higher.

What was measured:
Experiment in all cases: inhibition of tumour cell growth, NCI panel, 48 h
SK-MEL-2 = system: SK-MEL-2
786-0 = system: 786-0
NCI-H226 = system: NCI-H226
A498 = system: A498
Malme-3M = system: Malme-3M
MCF7 = system: MCF7
Hs-578T = system: Hs-578T
HT-29 = system: HT-29
CCRF-CEM = system: CCRF-CEM
T47D = system: T47D
SNB-19 = system: SNB-19
EKVX = system: EKVX
OVCAR-4 = system: OVCAR-4
SF-539 = system: SF-539
SK-MEL-5 = system: SK-MEL-5
UACC-62 = system: UACC-62
LOX IMVI = system: LOX IMVI
ACHN = system: ACHN
MDA-MB-231 = system: MDA-MB-231
SK-OV-3 = system: SK-OV-3
COLO 205 = system: COLO 205
HOP-62 = system: HOP-62
SK-MEL-28 = system: SK-MEL-28
SN12C = system: SN12C
SF-295 = system: SF-295
NCI-H23 = system: NCI-H23
NCI-H460 = system: NCI-H460
HOP-92 = system: HOP-92
MOLT-4 = system: MOLT-4
UACC-257 = system: UACC-257
DU-145 = system: DU-145
CAKI-1 = system: CAKI-1
MDA-MB-435 = system: MDA-MB-435
RXF 393 = system: RXF 393
A549 = system: A549
SF-268 = system: SF-268
U-251 = system: U-251
BT-549 = system: BT-549
RPMI-8226 = system: RPMI-8226
HCT-116 = system: HCT-116
HL-60 = system: HL-60
M14 = system: M14
NCI/ADR-RES = system: NCI/ADR-RES
SR = system: SR
MDA-N = system: MDA-N
IGROV-1 = system: IGROV-1
SW-620 = system: SW-620
PC-3 = system: PC-3
K562 = system: K562
HCC 2998 = system: HCC 2998
NCI-H522 = system: NCI-H522
SNB-75 = system: SNB-75
OVCAR-8 = system: OVCAR-8
TK-10 = system: TK-10
HCT-15 = system: HCT-15
KM12 = system: KM12
OVCAR-5 = system: OVCAR-5
UO-31 = system: UO-31
OVCAR-3 = system: OVCAR-3

For `N#Cc1c(=O)c2cc([N+](=O)[O-])ccc2n2c1[nH]c1ccccc12`, the GI50 (SK-MEL-2) was 5.25 µM (inactive), the GI50 (786-0) was 6.75 µM (inactive) and the GI50 (NCI-H226) was 4.58 µM (inactive). The GI50 (A498) was 1.71 µM (inactive), the GI50 (Malme-3M) was 8.89 µM (inactive) and the GI50 (MCF7) was 6.92 µM (inactive). The GI50 (Hs-578T) was 3.44 µM (inactive), the GI50 (HT-29) was 8.09 µM (inactive) and the GI50 (CCRF-CEM) was 5.37 µM (inactive). For the same molecule, the GI50 (T47D) was 4.44 µM (inactive), the GI50 (SNB-19) was 5.41 µM (inactive) and the GI50 (EKVX) was 23.1 µM (inactive). The GI50 (OVCAR-4) was 3.38 µM (inactive), the GI50 (SF-539) was 17.3 µM (inactive) and the GI50 (SK-MEL-5) was 13.3 µM (inactive). For the same molecule, the GI50 (UACC-62) was 4.59 µM (inactive), the GI50 (LOX IMVI) was 5.24 µM (inactive) and the GI50 (ACHN) was 9.48 µM (inactive). The GI50 (MDA-MB-231) was 4.76 µM (inactive), the GI50 (SK-OV-3) was 5.79 µM (inactive) and the GI50 (COLO 205) was 4.99 µM (inactive). For the same molecule, the GI50 (HOP-62) was 9.55 µM (inactive), the GI50 (SK-MEL-28) was 4.48 µM (inactive) and the GI50 (SN12C) was 9.93 µM (inactive). For the same molecule, the GI50 (SF-295) was 4.2 µM (inactive), the GI50 (NCI-H23) was 3.19 µM (inactive) and the GI50 (NCI-H460) was 4.99 µM (inactive). The GI50 (HOP-92) was 2.62 µM (inactive), the GI50 (MOLT-4) was 4.83 µM (inactive) and the GI50 (UACC-257) was 7.46 µM (inactive). The GI50 (DU-145) was 8.05 µM (inactive), the GI50 (CAKI-1) was 6.84 µM (inactive) and the GI50 (MDA-MB-435) was 10.3 µM (inactive). For the same molecule, the GI50 (RXF 393) was 3.55 µM (inactive), the GI50 (A549) was 7.57 µM (inactive) and the GI50 (SF-268) was 8.67 µM (inactive). For the same molecule, the GI50 (U-251) was 7.71 µM (inactive), the GI50 (BT-549) was 9.08 µM (inactive) and the GI50 (RPMI-8226) was 1.91 µM (inactive). The GI50 (HCT-116) was 3.37 µM (inactive), the GI50 (HL-60) was 4.81 µM (inactive) and the GI50 (M14) was 7.96 µM (inactive). For the same molecule, the GI50 (NCI/ADR-RES) was 3.54 µM (inactive), the GI50 (SR) was 10.7 µM (inactive) and the GI50 (MDA-N) was 15 µM (inactive). For the same molecule, the GI50 (IGROV-1) was 12.5 µM (inactive), the GI50 (SW-620) was 8.71 µM (inactive) and the GI50 (PC-3) was 4 µM (inactive). The GI50 (K562) was 3.78 µM (inactive), the GI50 (HCC 2998) was 7.21 µM (inactive) and the GI50 (NCI-H522) was 2.18 µM (inactive). The GI50 (SNB-75) was 10.7 µM (inactive), the GI50 (OVCAR-8) was 5.27 µM (inactive) and the GI50 (TK-10) was 5.92 µM (inactive). The GI50 (HCT-15) was 7.64 µM, the GI50 (KM12) was 5.85 µM (inactive) and the GI50 (OVCAR-5) was 6 µM (inactive). For the same molecule, the GI50 (UO-31) was 4.3 µM (inactive) and the GI50 (OVCAR-3) was 3.43 µM (inactive).
With `O=C(O)CCc1nc2ccccc2[nH]1` [PROCODAZOLE] the GI50 (SK-MEL-2) was > 100 µM (inactive), the GI50 (786-0) was > 100 µM (inactive) and the GI50 (NCI-H226) was > 100 µM (inactive). The GI50 (A498) was > 100 µM (inactive), the GI50 (Malme-3M) was > 100 µM (inactive) and the GI50 (MCF7) was > 100 µM (inactive). For the same molecule, the GI50 (Hs-578T) was > 100 µM (inactive), the GI50 (HT-29) was > 100 µM (inactive) and the GI50 (CCRF-CEM) was > 100 µM (inactive). For the same molecule, the GI50 (T47D) was > 100 µM (inactive), the GI50 (SNB-19) was > 100 µM (inactive) and the GI50 (EKVX) was > 100 µM (inactive). The GI50 (OVCAR-4) was > 100 µM (inactive), the GI50 (SF-539) was > 100 µM (inactive) and the GI50 (SK-MEL-5) was > 100 µM (inactive). For the same molecule, the GI50 (UACC-62) was > 100 µM (inactive), the GI50 (LOX IMVI) was > 100 µM (inactive) and the GI50 (ACHN) was > 100 µM (inactive). The GI50 (MDA-MB-231) was > 100 µM (inactive), the GI50 (SK-OV-3) was 0.237 µM (active) and the GI50 (COLO 205) was > 100 µM (inactive). The GI50 (HOP-62) was > 100 µM (inactive), the GI50 (SK-MEL-28) was > 100 µM (inactive) and the GI50 (SN12C) was > 100 µM (inactive). For the same molecule, the GI50 (SF-295) was > 100 µM (inactive), the GI50 (NCI-H23) was > 100 µM (inactive) and the GI50 (NCI-H460) was > 100 µM (inactive). The GI50 (HOP-92) was > 100 µM (inactive), the GI50 (MOLT-4) was > 100 µM (inactive) and the GI50 (UACC-257) was > 100 µM (inactive). The GI50 (DU-145) was > 100 µM (inactive), the GI50 (CAKI-1) was > 100 µM (inactive) and the GI50 (MDA-MB-435) was > 100 µM (inactive). The GI50 (RXF 393) was > 100 µM (inactive), the GI50 (A549) was > 100 µM (inactive) and the GI50 (SF-268) was > 100 µM (inactive). The GI50 (U-251) was > 100 µM (inactive), the GI50 (BT-549) was > 100 µM (inactive) and the GI50 (RPMI-8226) was > 100 µM (inactive). For the same molecule, the GI50 (HCT-116) was > 100 µM (inactive), the GI50 (HL-60) was > 100 µM (inactive) and the GI50 (M14) was > 100 µM (inactive). The GI50 (NCI/ADR-RES) was > 100 µM (inactive), the GI50 (SR) was > 100 µM (inactive) and the GI50 (MDA-N) was > 100 µM (inactive). For the same molecule, the GI50 (IGROV-1) was > 100 µM (inactive), the GI50 (SW-620) was > 100 µM (inactive) and the GI50 (PC-3) was > 100 µM (inactive). The GI50 (K562) was > 100 µM (inactive), the GI50 (HCC 2998) was > 100 µM (inactive) and the GI50 (NCI-H522) was > 100 µM (inactive). The GI50 (SNB-75) was > 100 µM (inactive), the GI50 (OVCAR-8) was > 100 µM (inactive) and the GI50 (TK-10) was > 100 µM (inactive). For the same molecule, the GI50 (HCT-15) was > 100 µM, the GI50 (KM12) was > 100 µM (inactive) and the GI50 (OVCAR-5) was > 100 µM (inactive). For the same molecule, the GI50 (UO-31) was > 100 µM (inactive) and the GI50 (OVCAR-3) was > 100 µM (inactive).
